# Source: patent US8791267B2, “Biaryl PDE4 inhibitors for treating inflammatory, cardiovascular and CNS disorders” (Decode Genetics EHF, priority 2007, dated 2014)
# Structures can show the parent of a compound that is named as a salt. Where two headings read alike, the source gives them in different places.
# How the values were obtained:
# PDE4B = PDE4B (Homo sapiens, UniProt Q07343); assay: In-vitro assay for PDE4 enzymes, real-time enzyme-coupled spectrophotometric assay, PDE4B Activity (Table 10); format: biochemical
# Sequence of PDE4B (Q07343 whole entry): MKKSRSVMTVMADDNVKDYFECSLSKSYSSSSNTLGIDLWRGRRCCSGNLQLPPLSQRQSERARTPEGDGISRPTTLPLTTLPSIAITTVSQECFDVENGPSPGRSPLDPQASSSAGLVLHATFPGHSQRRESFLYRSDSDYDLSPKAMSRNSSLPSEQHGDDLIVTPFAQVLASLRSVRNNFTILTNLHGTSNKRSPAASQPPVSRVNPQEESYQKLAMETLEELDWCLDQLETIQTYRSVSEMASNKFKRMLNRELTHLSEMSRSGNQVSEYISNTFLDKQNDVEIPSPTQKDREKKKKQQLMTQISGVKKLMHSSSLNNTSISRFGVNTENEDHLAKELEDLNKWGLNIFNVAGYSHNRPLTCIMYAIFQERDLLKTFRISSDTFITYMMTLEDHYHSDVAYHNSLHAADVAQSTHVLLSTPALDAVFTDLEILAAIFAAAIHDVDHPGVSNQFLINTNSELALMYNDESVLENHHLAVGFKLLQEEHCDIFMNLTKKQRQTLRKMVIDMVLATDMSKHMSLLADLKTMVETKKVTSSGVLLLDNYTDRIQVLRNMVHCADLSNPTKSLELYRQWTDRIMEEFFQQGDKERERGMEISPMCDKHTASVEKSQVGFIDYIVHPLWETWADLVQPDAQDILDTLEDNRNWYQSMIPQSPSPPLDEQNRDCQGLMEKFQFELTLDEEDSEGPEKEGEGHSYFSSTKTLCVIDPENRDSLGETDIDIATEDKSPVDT
# PDE4 = PDE4 (Homo sapiens, UniProt Q08499); assay: In-vitro assay for PDE4 enzymes, real-time enzyme-coupled spectrophotometric assay (Table 9); format: biochemical
# Sequence of PDE4 (Q08499 whole entry): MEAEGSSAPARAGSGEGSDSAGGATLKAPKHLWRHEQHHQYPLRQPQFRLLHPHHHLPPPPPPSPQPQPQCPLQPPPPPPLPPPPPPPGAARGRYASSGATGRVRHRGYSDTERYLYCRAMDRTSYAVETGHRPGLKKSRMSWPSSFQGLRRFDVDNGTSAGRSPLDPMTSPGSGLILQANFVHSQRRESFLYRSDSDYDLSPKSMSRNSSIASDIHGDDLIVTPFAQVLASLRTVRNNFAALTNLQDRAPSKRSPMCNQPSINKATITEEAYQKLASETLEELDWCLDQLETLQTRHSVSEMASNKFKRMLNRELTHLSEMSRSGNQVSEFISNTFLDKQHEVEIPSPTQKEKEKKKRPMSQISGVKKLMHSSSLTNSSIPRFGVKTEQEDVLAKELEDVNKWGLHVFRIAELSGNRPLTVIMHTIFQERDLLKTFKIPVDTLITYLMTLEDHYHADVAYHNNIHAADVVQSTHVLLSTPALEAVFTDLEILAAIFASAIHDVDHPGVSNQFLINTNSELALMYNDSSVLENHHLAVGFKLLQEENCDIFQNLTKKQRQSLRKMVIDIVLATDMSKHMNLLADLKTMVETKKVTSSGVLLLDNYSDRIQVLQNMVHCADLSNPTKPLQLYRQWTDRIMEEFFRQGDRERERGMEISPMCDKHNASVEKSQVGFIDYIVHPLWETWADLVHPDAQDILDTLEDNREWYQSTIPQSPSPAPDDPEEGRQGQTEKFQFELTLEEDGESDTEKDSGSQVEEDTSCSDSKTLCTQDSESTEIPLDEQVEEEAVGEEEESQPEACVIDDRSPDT
# [1] = human PDE4B (hPDE4B), enzyme-coupled spectrophotometric assay, read-out: PDE4B Activity, hPDE4B
# [2] = human PDE4D, activity class, Table 9, read-out: hPDE4D
Structure (SMILES),IC50 (PDE4B; [1]),IC50 (PDE4; [2]),IC50 (PDE4B),IC50 (PDE4)
"COc1ccc(Cn2ccccc2=O)cc1-c1cccc(C(C)=O)c1 [P-179, 1-(3′-Acetyl-6-methoxy-biphenyl-3-ylmethyl)-1H-pyridin-2-one]",5 to 20 µM,5 to 20 µM,–,–
"COc1ccc(Cc2ccc3cnc(C(N)=O)n3c2)c(F)c1-c1cccc(Cl)c1 [P-445, 6-(3′-chloro-2-fluoro-6-methoxy-biphenyl-3-ylmethyl)-imidazo[1,5-a]pyridine-3-carboxylic acid amide]",5 to 20 µM,< 5 µM,–,–
"COc1ccc(Cc2cnc(N)nc2)c(F)c1-c1cccc(C(C)=O)c1 [P-281, 1-[3′-(2-Amino-pyrimidin-5-ylmethyl)-2′-fluoro-6′-methoxy-biphenyl-3-yl]-ethanone hydrochloride]",< 5 µM,< 5 µM,–,–
"NC(=O)Oc1ccc(Cc2ccc(=O)[nH]n2)cc1-c1cccc([N+](=O)[O-])c1 [P-020, Carbamic acid 3′-nitro-5-(6-oxo-1,6-dihydro-pyridazin-3-ylmethyl)-biphenyl-2-yl ester]",–,–,21 to 40 µM,5 to 20 µM
"NC(=O)Nc1ccc(Cc2ccc(O)c(-c3cccc(Cl)c3)c2F)cc1 [P-468, [4-(3′-Chloro-2-fluoro-6-hydroxy-biphenyl-3-ylmethyl)-phenyl]-urea]",< 5 µM,< 5 µM,–,–
COc1ccc(COc2ccc(Cl)nc2)c(F)c1-c1cccc(Cl)c1 [P-585],< 5 µM,< 5 µM,–,–
"CNC(=O)NCc1ccc(Cc2ccc(OC)c(-c3cccc(Cl)c3)c2)cn1 [P-593, 1-[5-(3′-chloro-6-methoxy-biphenyl-3-ylmethyl)-pyridin-2-ylmethyl]-3-methyl-urea hydrochloride]",< 5 µM,< 5 µM,–,–
"COc1ccc(Cc2cccc(CN)c2)cc1-c1cccc([N+](=O)[O-])c1 [P-161, 3-(6-Methoxy-3′-nitro-biphenyl-3-ylmethyl)-benzylamine]",5 to 20 µM,5 to 20 µM,–,–
"COc1ccc(Cn2cnc3ccccc32)cc1-c1ccc2nonc2c1 [P-014, 5-(5-Benzoimidazol-1-ylmethyl-2-methoxy-phenyl)-benzo[1,2,5]oxadiazole]",5 to 20 µM,5 to 20 µM,–,–
"COc1ccc(Cc2ccc(NC(N)=O)cc2)cc1-c1cccc(C#N)c1 [P-394, [4-(3′-Cyano-6-methoxy-biphenyl-3-ylmethyl)-phenyl]-urea]",< 5 µM,< 5 µM,–,–
COc1ccc(Cc2ccc(CNC(=O)CN(C)C)cc2)c(F)c1-c1cccc([N+](=O)[O-])c1 [P-175],< 5 µM,< 5 µM,–,–
COc1ccc(Cc2ccc(NS(C)(=O)=O)nc2)c(F)c1-c1cccc(C(C)=O)c1 [P-297],5 to 20 µM,< 5 µM,–,–
COc1ccc(Cc2ccc(NC(=O)CCN3CCCCC3)cc2)cc1-c1cccc([N+](=O)[O-])c1 [P-146],5 to 20 µM,< 5 µM,–,–
"CCNC(=O)Nc1nnc(Cc2ccc(OC)c(-c3cccc(Cl)c3)c2F)s1 [P-343, 1-[5-(3′-Chloro-2-fluoro-6-methoxy-biphenyl-3-ylmethyl)-[1,3,4]thiadiazol-2-yl]-3-ethyl-urea]",< 5 µM,< 5 µM,–,–
COc1ccc(Cc2ccc(NC(=O)CCC(=O)O)cc2)cc1-c1cccc([N+](=O)[O-])c1 [P-122],5 to 20 µM,< 5 µM,–,–
CCNc1ccc(Cc2ccc(OC)c(-c3cccc(Cl)c3)c2F)cn1 [P-318],< 5 µM,< 5 µM,–,–
"COc1ccc(Cn2cc(NC(C)=O)ccc2=O)cc1-c1cccc([N+](=O)[O-])c1 [P-211, N-[1-(6-Methoxy-3′-nitro-biphenyl-3-ylmethyl)-6-oxo-1,6-dihydro-pyridin-3-yl]-acetamide]",5 to 20 µM,5 to 20 µM,–,–
"COc1ccc(Cc2ccc(N(C)C(N)=O)cc2)c(F)c1-c1cccc(C(C)=O)c1 [P-338, 1-[4-(3′-Acetyl-2-fluoro-6-methoxy-biphenyl-3-ylmethyl)-phenyl]-1-methyl-urea]",< 5 µM,< 5 µM,–,–
COc1ccc(CN2CCCC2=O)c(O)c1-c1cccc([N+](=O)[O-])c1 [P-229],< 5 µM,< 5 µM,–,–
"COc1ccc(COC2=CC(=O)CC2)cc1-c1cccc([N+](=O)[O-])c1 [P-092, 3-(6-Methoxy-3′-nitro-biphenyl-3-ylmethoxy)-cyclopent-2-enone]",< 5 µM,< 5 µM,–,–
COc1ccc(Cc2cccnc2Cl)c(O)c1-c1cccc([N+](=O)[O-])c1 [P-109],< 5 µM,< 5 µM,–,–
"COc1ccc(Cc2ccc(CN3CCN(C)C3=O)nc2)c(F)c1-c1cccc(Cl)c1 [P-375, 1-[5-(3′-Chloro-2-fluoro-6-methoxy-biphenyl-3-ylmethyl)-pyridin-2-ylmethyl]-3-methyl-imidazolidin-2-one]",< 5 µM,< 5 µM,–,–
"COc1ccc(Cc2ccc(CO)cc2)c(O)c1-c1cccc([N+](=O)[O-])c1 [P-183, 3-(4-Hydroxymethyl-benzyl)-6-methoxy-3′-nitro-biphenyl-2-ol]",< 5 µM,< 5 µM,–,–
"COc1ccc(Cc2ccc(NC(N)=O)cc2)nc1-c1cccc(Cl)c1 [P-376, {4-[6-(3-chloro-phenyl)-5-methoxy-pyridin-2-ylmethyl]-phenyl}-urea]",< 5 µM,< 5 µM,–,–
"COc1ccc(Cc2c(C)nn(CC(N)=O)c2C)cc1-c1cccc([N+](=O)[O-])c1 [P-101, 2-[4-(6-Methoxy-3′-nitro-biphenyl-3-ylmethyl)-3,5-dimethyl-pyrazol-1-yl]-acetamide]",< 5 µM,< 5 µM,–,–

Structure (SMILES),IC50 (PDE4B; [1]),IC50 (PDE4; [2]),IC50 (PDE4B),IC50 (PDE4)
O=[N+]([O-])c1cccc(-c2cc(Cc3ccc(Cl)nc3)ccc2O)c1 [P-500],5 to 20 µM,< 5 µM,–,–
COc1ccc(COc2ccc(N)cc2)c(F)c1-c1cccc(Cl)c1 [P-576],< 5 µM,< 5 µM,–,–
"COc1ccc(-n2cnc3ccc(N)cc32)cc1-c1cccc(Cl)c1 [P-524, 3-(3′-Chloro-6-methoxy-biphenyl-3-yl)-3H-benzoimidazol-5-ylamine]",< 5 µM,< 5 µM,–,–
COc1ccc(Cc2ccc(CNC(C)=O)c(O)c2)c(F)c1-c1cccc(Cl)c1 [P-302],< 5 µM,< 5 µM,–,–
COc1ccc(Cc2cnc(NC(N)=O)nc2)c(F)c1-c1cccc(Cl)c1 [P-291],< 5 µM,< 5 µM,–,–
"COc1ccc(Cc2ccccc2O)cc1-c1cccc([N+](=O)[O-])c1 [P-105, 2-(6-Methoxy-3′-nitro-biphenyl-3-ylmethyl)-phenol]",< 5 µM,< 5 µM,–,–
COc1ccc(Cc2ccc(C#N)c(F)c2)c(F)c1-c1cccc(Cl)c1 [P-274],< 5 µM,< 5 µM,–,–
"COc1ccc(Cc2ccc(-n3cnnn3)cc2)c(F)c1-c1cccc(Cl)c1 [P-404, 1-[4-(3′-chloro-2-fluoro-6-methoxy-biphenyl-3-ylmethyl)-phenyl]-1H-tetrazole]",< 5 µM,< 5 µM,–,–
"COc1ccc(Cn2cncn2)cc1-c1cccc(C#N)c1 [P-081, 2′-Methoxy-5′-[1,2,4]triazol-1-ylmethyl-biphenyl-3-carbonitrile]",5 to 20 µM,< 5 µM,–,–
"COc1ccc(Cc2ccc(S(N)(=O)=O)cc2)cc1-c1cccc(Cl)c1 [P-266, 4-(3′-Chloro-6-methoxy-biphenyl-3-ylmethyl)-benzenesulfonamide]",< 5 µM,< 5 µM,–,–
"COc1ccc(Cc2ccc(NC(=O)NC3CCCO3)cc2)cc1-c1cccc(Cl)c1 (centres unmarked) [P-566, 1-[4-(3′-Chloro-6-methoxy-biphenyl-3-ylmethyl)-phenyl]-3-(tetrahydro-furan-2-yl)-urea]",< 5 µM,< 5 µM,–,–
COc1ccc(Cc2ccc(N)c(O)c2)c(F)c1-c1cccc(Cl)c1 [P-256],5 to 20 µM,< 5 µM,–,–
COc1ccc(Cc2ccc(NC(=O)OC(C)(C)C)cc2)cc1-c1cccc([N+](=O)[O-])c1 [P-112],< 5 µM,< 5 µM,–,–
"COc1ccc(Cc2ccc(C(N)=O)cc2)c(F)c1-c1cccc(C(C)=O)c1 [P-305, 4-(3′-Acetyl-2-fluoro-6-methoxy-biphenyl-3-ylmethyl)-benzamide]",5 to 20 µM,< 5 µM,–,–
"COc1ccc(Cc2cccc(NC(N)=O)c2)cc1-c1cccc(Cl)c1 [P-270, [3-(3′-Chloro-6-methoxy-biphenyl-3-ylmethyl)-phenyl]-urea]",5 to 20 µM,< 5 µM,–,–
"CCNC(=O)N1CCN(c2cc(Cc3ccc(OC)c(-c4cccc(Cl)c4)c3F)ccn2)CC1 [P-519, 4-[4-(3′-Chloro-2-fluoro-6-methoxy-biphenyl-3-ylmethyl)-pyridin-2-yl]-piperazine-1-carboxylic acid ethylamide]",< 5 µM,< 5 µM,–,–
"COc1ccc(Cc2ccc(F)cc2)nc1-c1cccc([N+](=O)[O-])c1 [P-023, 6-(4-fluoro-benzyl)-3-methoxy-2-(3-nitro-phenyl)-pyridine]",5 to 20 µM,< 5 µM,–,–
COc1ccc(Cc2ccc(N)cn2)c(F)c1-c1cccc(Cl)c1 [P-478],< 5 µM,< 5 µM,–,–
"COc1ccc(C[S+]([O-])c2ccc(F)cc2)cc1-c1cccc([N+](=O)[O-])c1 (centres unmarked) [P-192, 5-(4-Fluoro-benzenesulfinylmethyl)-2-methoxy-3′-nitro-biphenyl]",5 to 20 µM,5 to 20 µM,–,–
"COc1ccc(Cn2ccccc2=O)cc1-c1cccc(Cl)c1 [P-209, 1-(3′-Chloro-6-methoxy-biphenyl-3-ylmethyl)-1H-pyridin-2-one]",< 5 µM,5 to 20 µM,–,–
COc1ccc(Cc2c(C)noc2C)c(O)c1-c1cccc([N+](=O)[O-])c1 [P-174],< 5 µM,< 5 µM,–,–
"COc1ccc(Cc2nnc(N)s2)c(F)c1-c1cccc(Cl)c1 [P-333, 5-(3′-Chloro-2-fluoro-6-methoxy-biphenyl-3-ylmethyl)-[1,3,4]thiadiazol-2-ylamine]",< 5 µM,< 5 µM,–,–
"COc1ccc(Cc2ccnc(C#N)c2)c(F)c1-c1cccc(Cl)c1 [P-433, 4-(3′-Chloro-2-fluoro-6-methoxy-biphenyl-3-ylmethyl)-pyridine-2-carbonitrile]",< 5 µM,< 5 µM,–,–
"COCc1ccc(OC)c(-c2cccc([N+](=O)[O-])c2)n1 [P-025, 3-methoxy-6-methoxymethyl-2-(3-nitro-phenyl)-pyridine]",21 to 40 µM,5 to 20 µM,–,–
